This note sets out measurements from ChEMBL document CHEMBL4017513, “Structure-Activity Relationships of Potent, Targeted Covalent Inhibitors That Abolish Both the Transamidation and GTP Binding Activities of Human Tissue Transglutaminase” (J Med Chem, 2017).

The target of experiment [1] is T1, Coagulation factor XIII A chain (Homo sapiens) (UniProt P00488).
T1 sequence (whole entry): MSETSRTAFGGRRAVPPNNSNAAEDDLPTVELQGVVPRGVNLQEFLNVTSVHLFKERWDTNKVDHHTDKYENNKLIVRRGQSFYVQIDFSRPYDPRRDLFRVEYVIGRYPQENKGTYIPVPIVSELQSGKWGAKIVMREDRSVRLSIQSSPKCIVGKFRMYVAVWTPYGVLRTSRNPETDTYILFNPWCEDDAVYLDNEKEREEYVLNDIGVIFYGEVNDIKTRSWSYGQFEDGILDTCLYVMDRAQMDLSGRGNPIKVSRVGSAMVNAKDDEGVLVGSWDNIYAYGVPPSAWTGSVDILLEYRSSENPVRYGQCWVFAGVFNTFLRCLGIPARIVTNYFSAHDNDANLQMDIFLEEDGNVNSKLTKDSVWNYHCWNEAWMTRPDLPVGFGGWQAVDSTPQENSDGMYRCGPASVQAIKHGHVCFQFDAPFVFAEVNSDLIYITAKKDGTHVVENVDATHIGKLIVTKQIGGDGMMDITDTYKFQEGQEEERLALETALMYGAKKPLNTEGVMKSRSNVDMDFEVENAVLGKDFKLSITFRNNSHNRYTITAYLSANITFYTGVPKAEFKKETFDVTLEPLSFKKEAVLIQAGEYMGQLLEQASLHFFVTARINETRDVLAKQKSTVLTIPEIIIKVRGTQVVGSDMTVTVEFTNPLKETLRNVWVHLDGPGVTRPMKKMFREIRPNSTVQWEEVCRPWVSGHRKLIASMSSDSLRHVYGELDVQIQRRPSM
The experiment can be described thus: Inactivation of human F13a assessed as rate constant of enzyme inhibition using FRET- quenched A101 as substrate by fluorescence assay.

In experiment [2] the target is T2, Protein-glutamine gamma-glutamyltransferase 6 (Homo sapiens) (UniProt O95932).
T2 sequence (whole entry): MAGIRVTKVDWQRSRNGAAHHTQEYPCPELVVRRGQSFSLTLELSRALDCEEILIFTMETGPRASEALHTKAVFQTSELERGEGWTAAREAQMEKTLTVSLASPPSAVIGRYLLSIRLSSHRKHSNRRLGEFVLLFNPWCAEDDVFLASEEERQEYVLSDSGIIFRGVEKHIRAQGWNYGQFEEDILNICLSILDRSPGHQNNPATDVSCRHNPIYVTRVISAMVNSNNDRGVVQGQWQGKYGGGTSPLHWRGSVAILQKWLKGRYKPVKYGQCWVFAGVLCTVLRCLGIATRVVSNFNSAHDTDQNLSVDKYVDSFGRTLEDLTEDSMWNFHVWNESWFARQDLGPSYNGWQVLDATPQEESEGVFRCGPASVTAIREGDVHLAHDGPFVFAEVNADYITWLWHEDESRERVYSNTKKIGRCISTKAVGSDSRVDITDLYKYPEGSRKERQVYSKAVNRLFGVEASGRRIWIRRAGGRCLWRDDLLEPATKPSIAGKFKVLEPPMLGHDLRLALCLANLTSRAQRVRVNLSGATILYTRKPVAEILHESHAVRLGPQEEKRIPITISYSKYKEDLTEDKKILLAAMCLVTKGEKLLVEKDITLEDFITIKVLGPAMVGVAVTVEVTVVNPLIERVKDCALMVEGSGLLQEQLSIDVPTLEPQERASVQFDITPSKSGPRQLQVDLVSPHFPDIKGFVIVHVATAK
Nature of the experiment: Inactivation of human TG6 using AL5 as substrate by colorimetric assay.

The nature of experiment [3]: Inhibition of human ECS cells invasion by using Engelbreth-Holm-Swarm mouse tumor matrigel measured after 18 hrs by DAPI staining-based flourescence microscopy. The experiment is classed as functional, cell-based.
Experiment [4] in a line: Inhibition of guinea pig liver TG2 using Z-Gln-Gly/DMPDA as substrate preincubated for 3 mins followed by protein addition. Details: species or system Cavia porcellus.
For experiment [5], the species on record is Homo sapiens. The experiment can be described thus: Selectivity ratio of Kobs for human TG2 to Kobs for activated human TG3.

One may read the EC50 as the concentration at which the effect is half-maximal. By Ki is commonly meant a dissociation constant, usually derived from enzyme kinetics or from competition with a known ligand. Lower therefore signals higher affinity.

For the compound `C=CC(=O)NCCCC[C@H](NC(=O)OCc1ccccc1)C(=O)NCCOCCOCCNS(=O)(=O)c1cccc2c(N(C)C)cccc12`, the K was found to be 5.91 ×10⁻³ /min in experiment [1] and 6.16 ×10⁻³ /min in experiment [2]. In addition, the EC50 in experiment [3] was over 20 µM. Moreover, the Ki in experiment [4] was 29 µM. Moreover, in experiment [5], the Selectivity ratio stood at 390.
